Reference: US20240293420A1, “PHARMACEUTICAL COMPOSITION, PREPARATION, AND PREPARATION METHOD THEREFOR AND USE THEREOF” (WUHAN LL SCIENCE AND TECHNOLOGY DEVELOPMENT CO., LTD., priority 2021, published 2024)
Converted amounts (≈) assume the structure as drawn. “Also recorded” adds a separate entry of the source.

Columns and labels:
[1] = Dynamic vapor sorption (DVS) test; assay type: physicochemical
[2] = Physical and chemical stability of crystal forms at 60° C. (closed) and 40° C./75% RH (open); assay type: physicochemical
Experimental: The physical and chemical stability of crystal forms I, III, and V at 60° C. (closed) and 40° C./75% RH (open) for 7 days were investigated respectively.
(closed) and 40° C./75% RH (open) for 3 months were investigated.

[3] = Solubility tests in biological media of SGF, FaSSIF and FeSSIF; assay type: physicochemical
Experimental: The instrument used for liquid chromatography analysis was Agilent HPLC 1260 series, and the analytical method is shown in the table below.
The results of solubility tests of crystal forms I, III, and V in biological media of SGF, FaSSIF, and FeSSF are as shown in Table E and FIG. 43. There was little difference in the solubility of the above three crystal forms in different biological media, and the solubility in SGF was higher than 5 mg/mL.

[4] = Variable humidity XRPD (VH-XRPD) of crystal form III; assay type: physicochemical
Source text: The instrument parameters are as follows:
The humidity change program settings are as follows: […]

[5] = Pharmacokinetic experiments in Beagles; assay type: in vivo; conditions: Beagle, male, PO, 10 mg/kg, plasma
Experimental: The present disclosure preferred crystal forms I, III, and V of the compound in the above examples for pharmacokinetic experiments in Beagles, and the relevant experiments are as follows:
Animal: 9 Beagles, male, divided into three groups with 3 in each group, weight ranging from 10 to 13 kg (source & certificate number: Beijing Marshall Biotechnology Co., Ltd., No. 1103182011000161)
Administration mode and dosage: PO: 10 mg/kg
Preparation: 0.5% CMC-Na was used as the solvent, and 400 mg of each of the three different crystal forms of compound A were weighed and added to the corresponding 79 mL of solvent, respectively. The mixture was subjected to ultrasonication for 20 minutes, added with a stirrer, and mixed thoroughly for 3 hours (the storage period from compound preparation to animal administration at room temperature was less than 6 hours). After the drug solution became a homogeneous and fine suspension, which was observed by the naked eye, the solvent was gradually added until the specified volume reached the target concentration. The preparation was stirred for 10 minutes at room temperature before administration, and stirred continuously during administration.
Time points for sampling: the time points for blood sampling in the PO group were 0.167, 0.5, 1, 2, 4, 6, 8, and 24 hours.
Animals in the PO group were fasted overnight except for free access to water before administration, and resumed food supply 4 hours after administration.
After Beagles in the […] were administered, blood was collected from Beagles by jugular vein puncture according to the time points for sampling. About 1.0 mL of blood was collected at each time point and transferred to an anticoagulant EP tube (containing 10 μL of EDTA-K2, 375 mg/mL). The tube was gently inverted three times, stored in an ice box (no more than 30 minutes), and centrifuged at 3200 g for 10 minutes at 4° C. The plasma was transferred to an ultra-low temperature refrigerator and stored until detection.
Sample pretreatment process: 40 μL of sample was taken, and 160 μL of acetonitrile solution containing 0.1% FA and 200 ng/mL of mixed standard solution was added to precipitate the protein. The mixture was vortexed and mixed well, and the sample was centrifuged in a 4° C. centrifuge at 13000 pm for 10 minutes. 100 μL of the supernatant was transferred to another 96 deep well plate, then 100 μL of methanol:water (1:3, v:v) solution containing 0.1% FA was added thereto, and the mixture was shaken and mixed for 10 minutes.
• Ion source: ion electrospray (ESI) • Ionization mode: positive ion mode (Positive) • Detection mode (mode): multiple reaction monitoring (MRM) • Ion spray voltage: 5500 V • Ion spray temperature (turbo ion spray temp): 550° C. • Curtain gas type: nitrogen setting: 35 • Collision cell gas type (CAD gas type): nitrogen setting: medium • Nebulizing gas type (gas 1): nitrogen setting: 55.00 • Auxiliary gas type (gas 2): nitrogen setting: 55.00
• Chromatographic column: poroshell 120 EC-C18 (4.6×50 mm, 2.7 μm) • Mobile phase A: 0.1% formic acid aqueous solution • Mobile phase B: a solution of 0.1% formic acid in methanol • Auto sampler wash solution (rinse port wash solution): 50% methanol • Column temperature: 40° C. • Flow rate: 0.55 mL/min • Auto sampler temperature (sample tray temp): 10° C. • Injection volume: 3 μL • Lift of presser foot (needle stroke): 49 mm • Auto sampler rinse setting (rinse pump setting): rinse port only • Auto sampler rinse mode (rinse mode): before aspiration • Auto sampler rinse volume for needle (rinse volume): 500 μL • Dip time when rinsing the injection needle (rinse dip time): 2 seconds
The data would be analyzed using WinNonlin (version 5.2.1 Pharsight, Mountain View, CA) through a non-compartmental model to obtain PK parameters (selecting Cmax, Tmax, AUClast, T1/2, and other parameters according to different routes of administration).

[6] = Crystal form (XRPD) in preparation process of coated tablets; assay type: physicochemical; conditions: samples at stages of wet granulation and tabletting; listed as API
Source text: In order to investigate the impact of the preparation process of the preparation on the crystal form, samples were taken at different stages during the preparation process of the coated tablets according to Example 17.3 and analyzed. The analysis results are shown in Table I. The summarized results of the XRPD patterns of the products at each time point for sampling are shown in FIG. 52.
The investigation results are shown in Table J. The XRPD results of the crystal form of the coated tablet, API, and the blank excipient are shown in FIG. 53.

[7] = Crystal form transformation under humidity / drying (XRPD); assay type: physicochemical; conditions: humidity or drying as stated in the value
Source text: Crystal form I can be obtained by the preparation method in Example 3. […] (FIG. 29). Combined with the DVS test results (FIG. 30), it can be seen that the mutual transformation between crystal forms I and IV is reversible.
Crystal form IV is a hygroscopic product of crystal form I under high humidity environment, and can be obtained by slurrying crystal form I or crystal form V in a mixed solvent of water/acetone with a water content of 50% to 95%.
Crystal form VI was obtained by slurrying crystal form I or crystal form V at 60° C. in a mixed solvent of water/acetone with a water content of 10% (volume ratio) at 60° C.
Crystal form VIII is a hydrate, but the hydrate is unstable.

Compound: COC(=O)N1CCO[C@@H](Cc2c(-c3c(F)cc(S(N)(=O)=O)cc3F)nc3cc(Cl)ccn23)C1 [Crystal form III, methyl (S)-2-((7-chloro-2-(2,6-difluoro-4-sulfamoylphenyl)imidazo[1,2-a]pyridin-3-yl)methyl)morpholine-4-carboxylate]
- DVS hygroscopicity [1]: slightly hygroscopic
- XRPD before and after the DVS test [1]: no significant change in XRPD
- DVS (wt %, 80% RH) ([1]; 25° C., 80% RH): 2.7 wt %
- DVS (wt %, 90% RH) ([1]; 25° C., 90% RH): 2.8 wt %
- adsorbed water content ([1]; range of 10 to 80% RH): about 1.2%
- Purity - 7 days (peak area %) ([2]; 40° C./75% RH (open)): 99.35 peak area %
- Purity - 1 month (peak area %) ([2]; 40° C./75% RH): 99.29 peak area %
- Purity - 3 months (peak area %) ([2]; 40° C./75% RH): 99.23 peak area %
- XRPD - 3 months ([2]; 40° C./75% RH): Crystal form III
- Purity - 7 days (peak area %) ([2]; 60° C. (closed)): 99.35 peak area %
- Purity - 1 month (peak area %) ([2]; 60° C.): 99.28 peak area %
- Purity - 3 months (peak area %) ([2]; 60° C.): 99.25 peak area %
- XRPD - 3 months ([2]; 60° C.): Crystal form III
- Initial purity (peak area %) [2]: 99.34 peak area %
- Initial purity (peak area %) ([2]; listed as crystal form III): 99.33 peak area %
- XRPD of remaining solid ([3]; FaSSIF, 0.5 h): Unchanged
- pH ([3]; FaSSIF, 0.5 h): 6.4
- XRPD of remaining solid ([3]; FaSSIF, 2 h): Unchanged
- pH ([3]; FaSSIF, 2 h): 6.4
- XRPD of remaining solid ([3]; FaSSIF, 24 h): Unchanged
- pH ([3]; FaSSIF, 24 h): 6.4
- XRPD of remaining solid ([3]; FeSSIF, 0.5 h): Unchanged
- pH ([3]; FeSSIF, 0.5 h): 4.9
- Solubility ([3]; FeSSIF, 2 h): 88 µg/mL (≈ 176 µM)
- XRPD of remaining solid ([3]; FeSSIF, 2 h): Unchanged
- pH ([3]; FeSSIF, 2 h): 4.8
- Solubility ([3]; FeSSIF, 24 h): 120 µg/mL (≈ 240 µM)
- XRPD of remaining solid ([3]; FeSSIF, 24 h): Unchanged
- pH ([3]; FeSSIF, 24 h): 4.9
- pH ([3]; SGF, 0.5 h): 1.0
- solubility at 0.5 h ([3]; simulated gastric fluid, thermodynamic from solid, SGF, 0.5 h, visual observation): > 5000 µg/mL
- crystal form at 0% RH ([4]; cycle of 40% RH-0% RH-40% RH at 25° C.): completely dehydrated at 0% RH and transformed into a new crystal form, anhydrous crystal form X
- water content at which crystal form III is stable ([4]; from DVS at 40% RH and TGA): above 1.6%
- XRPD results ([4]; procedure 6: 0% RH, 720 minutes): Anhydrous crystal form X
- XRPD results ([4]; procedure 7: 0% RH, 900 minutes): Anhydrous crystal form X
- XRPD results ([4]; procedure 10: 40% RH, 120 minutes): Crystal form III
- XRPD results ([4]; procedure 11 (end): 40% RH, 240 minutes): Crystal form III
- AUClast [5]: 14454 ± 3182 ng·h/mL
- Cmax [5]: 1159 ± 160 ng/mL
- T1/2 [5]: 12.9 ± 1.06 h
- Tmax [5]: 2.00 ± 0.00 h
- Crystal form in preparation process [6]: remained stable; also recorded: Crystal form III
- crystal form transformation [7]: quickly absorbed moisture under ambient humidity and became crystal form III again
